The text below walks through data of patent US9226923B2, “Spirocyclic molecules as protein kinase inhibitors” (Nanjing Allgen Pharma Co. Ltd., priority 2011, dated 2016).

For one assay, the target named is Human ALK (Homo sapiens (Human), UniProt Q9UM73). Description: ALK enzyme inhibition assay (Reaction Biology Corporation). It counts as biochemical. The conditions noted are these: poly[Glu:Tyr] (4:1) 0.2 mg/ml, ATP 10 μM; read-out: Inhibitory Activities IC50, ALK. The protocol: (§1) The inhibitory activities of compounds of Formula I were assay at Reaction Biology Corporation, One Great Valley Parkway, Malvern, Pa., USA. Human ALK and cMet enzymes were used and the substrate was a peptide substrate, poly[Glu:Tyr] (4:1) at a concentration of 0.2 mg/ml.

In another assay the target is Human cMet (Homo sapiens (Human), UniProt P08581). Description: cMet enzyme inhibition assay (Reaction Biology Corporation). It counts as biochemical. The conditions noted are these: poly[Glu:Tyr] (4:1) 0.2 mg/ml, ATP 10 μM; read-out: Inhibitory Activities IC50, cMet. The protocol:
as §1

Each structure is given as a SMILES string.

Chain of Human cMet (P08581 25-1390): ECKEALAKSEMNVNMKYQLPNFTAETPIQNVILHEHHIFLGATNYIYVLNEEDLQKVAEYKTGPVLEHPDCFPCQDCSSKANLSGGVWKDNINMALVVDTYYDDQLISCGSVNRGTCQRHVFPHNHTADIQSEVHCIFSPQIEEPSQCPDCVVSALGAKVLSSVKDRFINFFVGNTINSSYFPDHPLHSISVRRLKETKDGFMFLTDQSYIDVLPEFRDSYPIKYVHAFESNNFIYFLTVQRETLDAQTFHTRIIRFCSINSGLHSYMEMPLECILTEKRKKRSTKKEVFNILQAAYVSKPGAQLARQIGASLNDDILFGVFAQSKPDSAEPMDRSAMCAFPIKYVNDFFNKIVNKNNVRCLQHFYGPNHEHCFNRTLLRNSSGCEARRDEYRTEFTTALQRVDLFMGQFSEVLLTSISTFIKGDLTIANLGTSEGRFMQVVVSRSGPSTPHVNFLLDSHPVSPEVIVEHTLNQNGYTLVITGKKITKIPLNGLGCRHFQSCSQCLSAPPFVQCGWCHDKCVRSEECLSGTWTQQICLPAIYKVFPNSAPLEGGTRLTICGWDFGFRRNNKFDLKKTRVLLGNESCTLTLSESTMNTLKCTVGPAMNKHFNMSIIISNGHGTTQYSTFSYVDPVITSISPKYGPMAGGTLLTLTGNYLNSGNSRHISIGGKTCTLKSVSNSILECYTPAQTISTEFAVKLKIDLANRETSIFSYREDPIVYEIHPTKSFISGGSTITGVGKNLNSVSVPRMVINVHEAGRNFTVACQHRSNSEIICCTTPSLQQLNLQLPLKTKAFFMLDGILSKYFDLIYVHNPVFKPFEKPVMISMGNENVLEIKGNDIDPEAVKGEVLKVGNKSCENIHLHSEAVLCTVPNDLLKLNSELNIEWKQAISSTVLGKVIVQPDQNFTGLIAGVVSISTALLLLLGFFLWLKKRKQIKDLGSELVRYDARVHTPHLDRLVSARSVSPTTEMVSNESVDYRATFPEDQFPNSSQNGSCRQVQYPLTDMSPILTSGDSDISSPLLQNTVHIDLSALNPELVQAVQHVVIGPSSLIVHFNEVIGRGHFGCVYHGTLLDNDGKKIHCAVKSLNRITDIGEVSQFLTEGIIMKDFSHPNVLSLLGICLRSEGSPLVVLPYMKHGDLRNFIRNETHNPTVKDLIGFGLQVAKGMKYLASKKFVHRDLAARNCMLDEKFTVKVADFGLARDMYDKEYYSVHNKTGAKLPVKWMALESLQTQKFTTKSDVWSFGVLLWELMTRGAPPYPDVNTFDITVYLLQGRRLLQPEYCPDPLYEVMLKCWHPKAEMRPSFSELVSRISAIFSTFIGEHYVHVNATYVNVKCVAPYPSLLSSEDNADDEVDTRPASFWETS
Chain of Human ALK (Q9UM73 19-1620): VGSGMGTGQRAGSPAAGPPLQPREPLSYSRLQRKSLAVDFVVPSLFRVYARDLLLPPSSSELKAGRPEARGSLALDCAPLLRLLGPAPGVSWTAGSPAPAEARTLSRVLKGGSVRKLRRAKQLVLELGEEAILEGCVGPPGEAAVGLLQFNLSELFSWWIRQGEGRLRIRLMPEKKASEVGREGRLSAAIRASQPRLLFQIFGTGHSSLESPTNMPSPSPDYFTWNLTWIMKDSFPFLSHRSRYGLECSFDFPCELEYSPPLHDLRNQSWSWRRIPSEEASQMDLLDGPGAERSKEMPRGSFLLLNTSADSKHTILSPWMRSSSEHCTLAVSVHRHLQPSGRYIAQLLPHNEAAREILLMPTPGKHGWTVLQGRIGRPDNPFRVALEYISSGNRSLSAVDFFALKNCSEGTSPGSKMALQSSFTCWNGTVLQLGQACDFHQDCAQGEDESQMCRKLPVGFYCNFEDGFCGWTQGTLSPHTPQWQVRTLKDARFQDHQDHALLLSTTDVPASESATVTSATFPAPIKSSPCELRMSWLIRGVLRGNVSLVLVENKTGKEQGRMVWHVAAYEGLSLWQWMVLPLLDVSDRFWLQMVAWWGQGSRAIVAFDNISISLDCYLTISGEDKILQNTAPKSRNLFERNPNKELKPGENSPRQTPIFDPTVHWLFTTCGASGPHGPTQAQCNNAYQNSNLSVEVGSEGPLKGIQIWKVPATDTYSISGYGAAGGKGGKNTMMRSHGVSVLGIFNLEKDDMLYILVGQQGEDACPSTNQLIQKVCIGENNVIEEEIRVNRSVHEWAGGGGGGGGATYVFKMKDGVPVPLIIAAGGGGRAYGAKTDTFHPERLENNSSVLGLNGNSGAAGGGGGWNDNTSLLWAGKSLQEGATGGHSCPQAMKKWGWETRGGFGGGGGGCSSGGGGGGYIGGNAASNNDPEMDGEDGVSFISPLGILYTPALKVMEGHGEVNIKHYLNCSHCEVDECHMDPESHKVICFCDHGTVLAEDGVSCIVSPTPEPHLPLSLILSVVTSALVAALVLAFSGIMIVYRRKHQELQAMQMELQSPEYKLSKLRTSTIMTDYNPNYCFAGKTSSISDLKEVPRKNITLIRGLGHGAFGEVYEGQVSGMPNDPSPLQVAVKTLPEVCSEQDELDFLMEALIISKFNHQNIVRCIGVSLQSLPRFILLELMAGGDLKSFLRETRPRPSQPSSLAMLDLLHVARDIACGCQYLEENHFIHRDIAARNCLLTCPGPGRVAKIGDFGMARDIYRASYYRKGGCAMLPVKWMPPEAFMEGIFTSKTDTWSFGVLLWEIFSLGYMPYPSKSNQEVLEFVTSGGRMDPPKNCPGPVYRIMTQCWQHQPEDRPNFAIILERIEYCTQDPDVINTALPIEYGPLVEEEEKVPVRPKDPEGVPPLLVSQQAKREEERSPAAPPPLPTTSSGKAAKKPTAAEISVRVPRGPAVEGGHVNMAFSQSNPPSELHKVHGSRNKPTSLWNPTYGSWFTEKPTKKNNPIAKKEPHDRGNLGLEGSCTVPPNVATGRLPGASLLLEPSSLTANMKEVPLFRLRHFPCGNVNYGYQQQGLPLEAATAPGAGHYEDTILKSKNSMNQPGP

As a reminder, the IC50 is the midpoint of a concentration-inhibition curve. As for `C[C@@H](Oc1cc(-c2cnn(C3CC4(CNC4)C3)c2)cnc1N)c1c(Cl)ccc(F)c1Cl` [Example 2, (R)-5-(1-(2-azaspiro[3.3]heptan-6-yl)-1H-pyrazol-4-yl)-3-(1-(2,6-dichloro-3-fluorophenyl)ethoxy)pyridin-2-amine], the IC50 on Human ALK turned out to be 2.21 nM. For `C[C@@H](Oc1cc(-c2cnn(C3CC4(CCNCC4)C3)c2)cnc1N)c1c(Cl)ccc(F)c1Cl` [Example 3, (R)-5-(1-(7-azaspiro[3.5]nonan-2-yl)-1H-pyrazol-4-yl)-3-((R)-1-(2,6-dichloro-3-fluorophenyl)ethoxy)pyridin-2-amine], the IC50 on Human cMet was determined as 8.9 nM. As for `C[C@@H](Oc1cc(-c2cnn(C3CCC4(CC3)CNC4)c2)cnc1N)c1c(Cl)ccc(F)c1Cl` [Example 4, (R)-5-(1-(2-azaspiro[3.5]nonan-7-yl)-1H-pyrazol-4-yl)-3-((R)-1-(2,6-dichloro-3-fluorophenyl)ethoxy)pyridin-2-amine], the IC50 at Human ALK turned out to be 4.31 nM; at Human cMet it was 4.8 nM.

On to `C[C@@H](Oc1cc(-c2cnn(C3CC4(CCCNC4)C3)c2)cnc1N)c1c(Cl)ccc(F)c1Cl` (stereo partly drawn) [Example 5], for which the IC50 on Human ALK worked out at 1.92 nM; at Human cMet, 2.09 nM.
